The target of test [1] is T1, NHE3 (Homo sapiens, UniProt P48764).
T1 construct: expressed in transfected cells
T1 sequence (P48764 26-834): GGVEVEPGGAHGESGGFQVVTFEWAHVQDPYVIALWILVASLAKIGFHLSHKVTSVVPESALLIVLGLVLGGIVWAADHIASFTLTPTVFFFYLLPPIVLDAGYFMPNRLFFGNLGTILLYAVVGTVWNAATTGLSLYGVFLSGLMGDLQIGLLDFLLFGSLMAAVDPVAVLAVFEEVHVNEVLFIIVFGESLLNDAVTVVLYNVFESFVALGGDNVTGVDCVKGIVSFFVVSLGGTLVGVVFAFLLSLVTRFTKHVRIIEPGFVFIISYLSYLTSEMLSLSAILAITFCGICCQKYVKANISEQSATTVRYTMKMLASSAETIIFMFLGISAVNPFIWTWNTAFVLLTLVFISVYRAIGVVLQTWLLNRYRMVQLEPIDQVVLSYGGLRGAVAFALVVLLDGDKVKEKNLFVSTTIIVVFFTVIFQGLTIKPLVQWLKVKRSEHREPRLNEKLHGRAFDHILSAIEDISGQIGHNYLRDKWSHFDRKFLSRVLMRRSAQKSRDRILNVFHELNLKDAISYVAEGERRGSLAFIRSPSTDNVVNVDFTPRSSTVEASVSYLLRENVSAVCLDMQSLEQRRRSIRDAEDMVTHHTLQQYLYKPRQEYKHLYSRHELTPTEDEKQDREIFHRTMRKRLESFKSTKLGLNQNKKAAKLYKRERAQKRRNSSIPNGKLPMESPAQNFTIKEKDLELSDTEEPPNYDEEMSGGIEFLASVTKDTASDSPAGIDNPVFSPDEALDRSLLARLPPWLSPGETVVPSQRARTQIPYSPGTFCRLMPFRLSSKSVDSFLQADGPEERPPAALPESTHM
T1 sequence (Q99653 2-195 partner limits assumed): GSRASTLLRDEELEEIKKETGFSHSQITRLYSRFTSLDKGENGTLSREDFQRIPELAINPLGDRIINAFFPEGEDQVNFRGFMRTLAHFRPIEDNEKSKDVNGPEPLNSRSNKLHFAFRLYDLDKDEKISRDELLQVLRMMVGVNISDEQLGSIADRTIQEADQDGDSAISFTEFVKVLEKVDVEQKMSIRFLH
Briefly: Cell-based assay of NHE-3 activity (persistent inhibition), human. The note with it: human Persistence, 60 min incubation then washout. In short, it runs like this: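 Persistent inhibition: compound (0-30 μM, 60 min, RT, NaCl-HEPES pH 7.4) removed before assay. Human NHE3/NHERF2 PS120 cells were then BCECF-loaded during NH4Cl pulse (30 min, 37 °C), acidified in Na+-free buffer, and Na+ added 10 min after washout; antiport measured as initial fluorescence-ratio change per minute.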

The target of test [2] is T1, NHE3. Description: Cell-based assay of NHE-3 activity (pre-incubation inhibition), human. As to conditions: human Preincubation; for pIC50 / IC50: 0-30 μM test compound. In short, it runs like this: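 Activity read as initial rate of BCECF fluorescence ratio change per minute (ex 439/505, em 538 nm) following NH4Cl prepulse acid loading. Compound (0–30 μM) present during 10 min Na+-free acidification at room temperature; cells were PS120 fibroblasts stably co-expressing human NHE3 and NHERF2.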

As to `Cc1cc(S(=O)(=O)N2CC[C@@H](COc3ccnc(CNC(=O)NCCCCNC(=O)NCc4cc(OC[C@@H]5CCN(S(=O)(=O)c6ccc(O[C@H]7c8cc(Cl)cc(C#N)c8C[C@@H]7N(C)C)c(C)c6)C5)ccn4)c3)C2)ccc1O[C@H]1c2cc(Cl)cc(C#N)c2C[C@@H]1N(C)C` [Example 51, 3-[(4-[[(3R)-1-[(4-[[(1S,2S)-6-Chloro-4-cyano-2-(dimethylamino)-2,3-dihydro-1H-inden-1-yl]oxy]-3-methylbenzene)sulfonyl]pyrrolidin-3-yl]methoxy]pyridin-2-yl)methyl]-1-[4-([[(4-[[(3R)-1-[(4-[[(1S,2S)-6-chloro-4-cyano-2-(dimethylamino)-2,3-dihydro-1H-inden-1-yl]oxy]-3-methylbenzene)sulfonyl]pyrrolidin-3-yl]methoxy]pyridin-2-yl)methyl]carbamoyl]amino)butyl]urea], at NHE3 [1], the “% inhibition” value is recorded as “B (40-70%)” and the pIC50 entry was “C (NHE3 pIC50 > 7)”. Besides, on NHE3 [2], the “% inhibition” value is “B (40-70%)” and the pIC50 entry is listed as “C (NHE3 pIC50 > 7)”.
On to `Cc1cc(S(=O)(=O)N[C@H]2CCN(CCOCCNC(=O)NCCCCNC(=O)NCCOCCN3CC[C@H](NS(=O)(=O)c4ccc(O[C@H]5c6cc(Cl)cc(C#N)c6C[C@@H]5N(C)C)c(C)c4)C3)C2)ccc1O[C@H]1c2cc(Cl)cc(C#N)c2C[C@@H]1N(C)C` [Example 54, 3-(2-[2-[(3S)-3-[(4-[[(1S,2S)-6-Chloro-4-cyano-2-(dimethylamino)-2,3-dihydro-1H-inden-1-yl]oxy]-3-methylbenzene)sulfonamido]pyrrolidin-1-yl]ethoxy]ethyl)-1-(4-[[(2-[2-[(3S)-3-[(4-[[(1S,2S)-6-chloro-4-cyano-2-(dimethylamino)-2,3-dihydro-1H-inden-1-yl]oxy]-3-methylbenzene)sulfonamido]pyrrolidin-1-yl]ethoxy]ethyl)carbamoyl]amino]butyl)urea], for which, at NHE3 [1], the “% inhibition” value is reported as “B (40-70%)” and the IC50 was below 100 nM. Further, on NHE3 [2], the “% inhibition” value is listed as “C (>70%)” and the IC50 is below 100 nM.
Take `N[C@@H]1CCCN([C@H]2Cc3c(Cl)cc(Cl)cc3[C@@H]2Oc2ccc(S(=O)(=O)NCCOCCOCCn3cc(CNC(=O)NCCCCNC(=O)NCc4cn(CCOCCOCCNS(=O)(=O)c5ccc(O[C@H]6c7cc(Cl)cc(Cl)c7C[C@@H]6N6CCC[C@@H](N)C6)cc5)nn4)nn3)cc2)C1` [Example 56, 1-([1-[2-(2-[2-[(4-[[(1S,2S)-2-[(3R)-3-Aminopiperidin-1-yl]-4,6-dichloro-2,3-dihydro-1H-inden-1-yl]oxy]benzene)sulfonamido]ethoxy]ethoxy)ethyl]-1H-1,2,3-triazol-4-yl]methyl)-3-(4-[[([1-[2-(2-[2-[(4-[[(1S,2S)-2-[(3R)-3-aminopiperidin-1-yl]-4,6-dichloro-2,3-dihydro-1H-inden-1-yl]oxy]benzene)sulfonamido]ethoxy]ethoxy)ethyl]-1H-1,2,3-triazol-4-yl]methyl)carbamoyl]amino]butyl)urea]: the “% inhibition” value at NHE3 [1] and at NHE3 [2] was “C (>70%)” in each case. Also, the IC50 against NHE3 [1] and on NHE3 [2] was below 100 nM each time.
For the compound `NC1CCCN(C2Cc3c(Cl)cc(Cl)cc3C2Oc2ccc(S(=O)(=O)NCCOCCOCCn3cc(CNC(=O)C(O)C(O)C(O)C(O)C(=O)NCc4cn(CCOCCOCCNS(=O)(=O)c5ccc(OC6c7cc(Cl)cc(Cl)c7CC6N6CCCC(N)C6)cc5)nn4)nn3)cc2)C1` [Example 57, (2R,3S,4R,5S)—N^1,N^6-Bis([1-[2-(2-[2-[(4-[[(1S,2S)-2-[(3R)-3-aminopiperidin-1-yl]-4,6-dichloro-2,3-dihydro-1H-inden-1-yl]oxy]benzene)sulfonamido]ethoxy]ethoxy)ethyl]-1H-1,2,3-triazol-4-yl]methyl)-2,3,4,5-tetrahydroxyhexanediamide], the pIC50 entry at NHE3 [1] and against NHE3 [2] was “C (NHE3 pIC50 > 7)” each time.

The term IC50 denotes the midpoint of a concentration-inhibition curve.

The values are drawn from patent US11242337B2, “Compounds useful for treating gastrointestinal tract disorders” (Ardelyx, Inc., priority 2017, dated 2022).
